Results as given in the METLIN SMRT retention time set (Domingo-Almenara et al. 2019).

Test: gradient 5% acetonitrile 3 min, to 50% in 2 min, to 85% in 15 min, held 3 min, 100 µL/min
Settings: column: Zorbax Extend-C18 2.1 x 50 mm; eluents: water / acetonitrile, 0.1% formic acid
Summary of the method: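 Retention times of pure standards were taken from adduct peaks that were selected by computer and manually inspected. Over 3 months, mixtures of ~100 molecules were run by HPLC–quadrupole time-of-flight mass spectrometry in positive and negative ionization mode. The Zorbax Extend-C18 column (2.1 × 50 mm, 1.8 μm) ran at 100 μL/min in water and acetonitrile, each containing 0.1% formic acid, with 40 μL dead volume and 900 μL dwell volume.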

SMILES	RP-LC retention time
CC1CCN(S(=O)(=O)c2ccc(-c3nnc(C(=O)N4CCCCCC4)o3)cc2)CC1	1100 s
Cc1ccc(C)c(Nc2c(-c3ccc(N4CCOCC4)cc3)nc3ncccn23)c1	746 s
Cc1cc(C)c2c(=O)n(Cc3nc(-c4ccccc4)oc3C)c(=O)n(C)c2n1	1160 s
Cc1ccc2c(c1)C1(CCN(CCc3nc(-c4ccccc4)oc3C)CC1)OC(=O)N2	747 s
CCCNC(=O)N1CCN(c2nc(CC(C)C)c3c(c2C#N)CC(C)(C)OC3)CC1	1090 s
Cc1ccc(S(=O)(=O)N2CCCCC2)cc1-c1nnc(-c2ccccc2Cl)o1	1160 s
Cc1cc(C)c(C)c(S(=O)(=O)N2CCn3c(nn(CC4CC4)c3=O)C2)c1C	943 s
Cc1ccc(CNC(=O)C2(C)CCN(S(=O)(=O)c3ccc(C4CCCCC4)cc3)CC2)cc1	1270 s
O=C(NCCc1ccccc1)C1CC(=O)N(CCc2c[nH]c3ccc(Cl)cc23)C1 (configuration not stated)	809 s
C#CCOCC(O)CN1CCN(C(c2ccccc2)c2ccccc2)CC1 (configuration not stated)	606 s
COc1cc(-c2nc(Cn3cnc4ccccc4c3=O)no2)cc(OC)c1OC	795 s
O=C(CCn1c(=O)oc2ccccc21)Nc1ccc(S(=O)(=O)Nc2nccs2)cc1	650 s
C=CCN1CCN(c2nc3cc(C(=O)OC)ccc3c(=O)n2-c2ccc(Cl)cc2)CC1	681 s
O=S(=O)(c1cccc(F)c1)N1CCN(c2cnn3c(C4CC4)nnc3c2)CC1	626 s
O=C1C2N=NN(Cc3nc(-c4ccccc4Cl)no3)C2C(=O)N1c1ccc2c(c1)CCC2 (configuration not stated)	1070 s
CCc1nnc(-c2ccc3ccn(CC(=O)N4CCN(c5ccccc5)CC4)c3c2)o1	858 s
C#C[C@]1(O)CC[C@H]2[C@@H]3CCC4=Cc5oncc5CC4(C)[C@H]3CCC21C (some centres not stated)	1180 s
O=C(NCCc1ccccc1)c1cc2sccc2n1Cc1ccc(Cl)cc1	1210 s
O=C(Cn1ncc2c(c1=O)N(C1CC1)C(=O)CS2)N1CCCc2ccccc21	745 s
COc1ccccc1N1CCN(c2ccc3cc(S(=O)(=O)N4CCCCC4)ccc3n2)CC1	987 s
Cc1cccc(CNC(=O)CN2CCN(Cc3cccc(Cl)c3)C2=O)c1	847 s
CCCNC(=O)CCC1CCN(c2cc(NC3CC3)ncn2)CC1	600 s
c1ccc(-c2cc(NCc3ccccn3)n3ncc(-c4ccccc4)c3n2)cc1	1180 s
CCCN1C(=O)c2c(C(=O)NCc3cccc(F)c3)ncn2CC1(C)C(=O)NCCC(C)C (configuration not stated)	843 s
Cn1c(=O)n(C)c2cc(Oc3ccccc3)c(NS(=O)(=O)c3ccc(F)cc3)cc21	868 s
CCSc1nnc(NC(=O)C2CCN(S(=O)(=O)c3cn(CC)cn3)CC2)s1	715 s
O=S(=O)(NC1CCCC1)c1cccc(-c2nc(-c3ccccc3)no2)c1	1170 s
COc1ccc(S(=O)(=O)N2CCc3nn(CC4CC4)c(=O)n3CC2)cc1	744 s

SMILES	RP-LC retention time
COc1ccc(-c2nc3cc(F)ccc3s2)cc1OC	1030 s
CCn1nccc1-c1cccc(-c2noc(CNC(=O)c3ccccc3)n2)c1	874 s
COCC(=O)N(CC(=O)N1CCc2sccc2C1COc1ccccc1F)CC(C)C (configuration not stated)	900 s
CCc1nc(OCC(=O)N(CC)c2ccccc2)c2ccccc2n1	798 s
O=C(NC1CCCCCCC1)C1CCCN(c2nc3ccccc3n(Cc3ccccc3)c2=O)C1 (configuration not stated)	1370 s
O=C(Nc1ccccc1F)N1CCCC1c1nncn1-c1ccccc1 (configuration not stated)	683 s
CCN1CCN(CCNC(=O)c2ccc(-c3ccc4c(c3)CCN4C(C)=O)cc2)CC1	598 s
CC(=O)Oc1ccc2cc(-c3ccccc3)c(=O)oc2c1	1000 s
Clc1ccc(Nc2nnc(Cc3ccncc3)c3ccccc23)cc1	599 s
O=C(NCCc1csc(-c2cccs2)n1)C1CCN(S(=O)(=O)c2cccs2)CC1	852 s
CCC(=O)Nc1ccc(CCc2nc3ccc(C(=O)NC(C)c4ccccc4)cc3[nH]2)cc1 (configuration not stated)	658 s
O=C1CCC(c2ccccc2)=NN1c1nc2ccccc2s1	884 s
CCc1cc(-c2csc(S(=O)(=O)NCCCN3CCN(c4ccccc4)CC3)c2)on1	736 s
Cc1ccc(-c2noc(C(=O)N3CCCC3)n2)cc1S(=O)(=O)N1CCN(c2ccccn2)CC1	700 s
CCCS(=O)(=O)N1C[C@@H](COC)[C@H](c2ccccn2)C1	619 s
CN(C)C(=O)CSc1ncnc2sccc12	627 s
Cn1c(=O)n(C)c2cc(CNCCc3ccc(Cl)cc3Cl)ccc21	653 s
CN1C(=O)c2cccnc2Sc2cc(NC(=O)c3ccsc3)ccc21	725 s
COC(=O)c1sc2ccccc2c1NC(=O)c1ccc(S(=O)(=O)N2CCCC2)cc1	946 s
CCn1c(C(=O)NCCc2c[nH]c3ccccc23)cc2cc(S(=O)(=O)N(C)C)ccc21	969 s
Cc1ccccc1C1CCCN1C(=O)c1ccnn1C (configuration not stated)	768 s
CCOc1ccc(-c2ccc(=O)n(CCc3nc(-c4ccccc4)no3)n2)cc1	1000 s
COc1ccc(C2CC(=O)c3cnc(N4CCN(c5ccccn5)CC4)nc3C2)c(OC)c1 (configuration not stated)	713 s
CCn1nc(C)n2cc(S(=O)(=O)NCc3ccc(Cl)cc3)cc2c1=O	904 s
Cc1cc(Nc2nc3ccncc3n(Cc3ccccc3)c2=O)ccc1Cl	747 s
O=S(=O)(Nc1ccc(Cn2cncn2)cc1)c1ccccc1Br	708 s
CC1=C(c2ccc(F)cc2)S(=O)(=O)N=C1N1CCCN(C(=O)c2ccccc2C)CC1	831 s

The next lines start with the values.

RP-LC retention time	SMILES
595 s	Cc1ccc2nc(C)cc(C(=O)NC(C)C)c2c1
958 s	COc1ccc(NC(=O)Cn2nc(C(F)(F)F)c(Br)c2C)cc1OC
668 s	CCC(C)NC(=O)c1ccc2c(c1)CCN2C(C)=O (configuration not stated)
858 s	CCOC(=O)C1CCN(c2nc3ccccc3n2Cc2cc(C)ccc2C)CC1
825 s	CC1(C)COc2ccc(NC(=O)COc3ccccc3F)cc2NC1=O
936 s	CCCn1cc(S(=O)(=O)Nc2ccc(C)cc2F)c2cccnc21
883 s	COC(=O)c1cc(S(=O)(=O)N2CCCC2C(=O)Nc2cccc(F)c2)cn1C (configuration not stated)
886 s	Cc1ccsc1C(=O)Nc1ccc2c(c1)Sc1ncccc1C(=O)N2C(C)C
845 s	COC(=O)c1ccc(Cl)cc1NC(=O)NCCc1cn(C)c2ncccc12
1260 s	Cc1ccc(NS(=O)(=O)c2cc(-c3nc(C(C)(C)C)cs3)cs2)c(F)c1
643 s	COCCCN1CN=C(Nc2nc(C)c3cc(OC)ccc3n2)NC1
808 s	Cc1cc(C2CCCN2C(=O)Nc2ccc(F)c(Cl)c2)no1 (configuration not stated)
935 s	CCOC(=O)C1CCN(c2c(C#N)cnc3ccc(Cl)cc23)CC1
623 s	O=C(Cn1cnc2cc3c(cc21)OCCO3)Nc1ccc2c(c1)OCCO2
844 s	Cc1ccc(CN2CCN(C3CCN(C(=O)Nc4ccccc4)CC3)C2=O)cc1
731 s	CC(=O)c1cccc(NC(=O)CCc2c(C)nn(-c3cc(N(C)C)ncn3)c2C)c1

RP-LC retention time	SMILES
912 s	CCOc1ccc2c(n1)CCN(C(=O)Nc1cc(C)cc(C)c1)C2
737 s	COc1ccc(F)cc1-c1cc(NC(=O)[C@@H]2CCCNC2)ncc1Cl
785 s	O=C(Nc1nc2c(s1)CN(C(=O)c1cc(-c3ccccc3)on1)CC2)C1CCCO1 (configuration not stated)
895 s	Cc1cc(C)c(NC(=O)Cn2c(=O)cc(-c3nc(C)no3)c3ccccc32)c(C)c1
974 s	CCC1Oc2ccc(S(=O)(=O)N3CCC(C(=O)N(CC)c4cccc(C)c4)CC3)cc2NC1=O (configuration not stated)
729 s	Cc1cc(F)ccc1NC(=O)C1CCN(S(=O)(=O)c2ccc3[nH]c(=O)ccc3c2)CC1
1060 s	Cc1ccc(-c2ncc(C(=O)Nc3cc(F)cc(F)c3)c(-c3ccncc3)n2)cc1
1140 s	CCc1nc(-c2csc(S(=O)(=O)N3CCC(C(=O)Nc4ccc(C(C)C)cc4)CC3)c2)no1
850 s	COc1cccc(-c2cc3n(n2)CCCN(C(=O)NCc2ccco2)C3)c1
1040 s	CCc1cccc(Nc2nc(C)cc(=O)n2CC(=O)Nc2ccc3c(c2)OCCO3)c1
805 s	CCc1nnc(-c2cc(C)n(CC(=O)NC(C)c3ccccc3)c2C)o1 (configuration not stated)
816 s	Cc1cc(C(=O)N2CCCCC2)c2c(=O)n(CC(=O)Nc3ccc(F)cc3F)c(=O)n(C)c2n1
657 s	COc1ccc(-c2nnc3n2CCN(Cc2scnc2C)C3)cc1
734 s	CCC(C)NC(=O)c1ccc2c(c1)N(C)C(=O)CS2 (configuration not stated)
958 s	COc1cc(NC(=O)c2cc3c(n(-c4ccc(F)cc4)c2=O)CCCC3=O)cc(OC)c1
1110 s	O=S(=O)(c1ccc(F)c(F)c1)N1CCc2nc(-c3ccc(F)cc3)ncc2C1
